Measurements from PMC9363195, “Preclinical Pharmacokinetics, Biodistribution, and Acute Toxicity Evaluation of Caerin 1.9 Peptide in Sprague Dawley Rats” (Evidence-based Complementary and Alternative Medicine : eCAM, 2022).
Peptide text beside a SMILES is read from it.

System: SD rats
Assay: Hematology and coagulation analysis in acute toxicity study
Assay type: in vivo, Sprague Dawley rats
Settings: day 15, mean ± SD
Protocol: Forty SD rats (20 males and 20 females) were randomly divided into 4 groups (Figure 1). All rats were given F3 once on the day of the experiment.
Twelve SD rats (6 males, 6 females) were given a daily subcutaneous injection of F3 at a dose of 10.0 mg/kg for consecutive 14 days. The first day of administration was recorded as day 1.
For 14 days, the body weight was measured before F3 administration on the first day of the experiment and once a week thereafter, with additional measurements on the day before and on the day of the planned autopsy. Food intake was recorded once a week. The rats were anesthetized by inhalation of 70% CO2/30% O2 before dissection, and blood samples were taken for hematology and biochemical analysis. The collected tissue was weighed and preserved for pathological examination.
Blood smears were used to investigate the morphology of basophils (ABBASO), eosinophils (ABEOS), neutrophils (ABNEUT), monocytes (ABMONO), and lymphocytes (ABLYMP) in the peripheral blood. When white blood cell classification and reticulocyte count cannot be calculated directly by ADVIA 2120i, they were manually counted and calculated following the procedure published previously. The number of platelets was determined manually when they could not be counted mechanically because of coagulation. Wright-Giemsa staining was used to prepare blood smears for cell morphology.
Liver and renal functions were measured with special attention to alanine aminotransferase (ALT), aspartate aminotransferase (AST), alkaline phosphatase (ALP), serum creatinine, total bilirubin, and urea levels. In addition, the levels of glucose, calcium, total protein, and albumin in serum samples were measured. The blood biochemical test, hematology test, and coagulation function test were detected by Hitachi 7180 automatic biochemical analyzer, Siemens ADVIA 2120i hematology analyzer, and Stargo Emo Express Hemagglutination analyzer, respectively.

[1] = female SD rats, s.c. 10.0 mg/kg daily x14 d, n=6
[2] = female SD rats, single s.c. 1.0 mg/kg, n=5
[3] = female SD rats, single s.c. 10.0 mg/kg, n=5
[4] = female SD rats, single s.c. 100.0 mg/kg, n=5
[5] = male SD rats, s.c. 10.0 mg/kg daily x14 d, n=6
[6] = male SD rats, single s.c. 1.0 mg/kg, n=5
[7] = male SD rats, single s.c. 10.0 mg/kg, n=5
[8] = male SD rats, single s.c. 100.0 mg/kg, n=5

## CC[C@H](C)[C@H](NC(=O)[C@H](CO)NC(=O)CNC(=O)[C@H](CC(C)C)NC(=O)[C@@H](NC(=O)CNC(=O)[C@H](Cc1ccccc1)NC(=O)[C@H](CC(C)C)NC(=O)CN)C(C)C)C(=O)N[C@@H](C)C(=O)N[C@@H](CCCCN)C(=O)N[C@@H](Cc1c[nH]cn1)C(=O)N[C@H](C(=O)N[C@@H](CC(C)C)C(=O)N1CCC[C@H]1C(=O)N[C@@H](Cc1c[nH]cn1)C(=O)N[C@H](C(=O)N[C@H](C(=O)N1CCC[C@H]1C(=O)N[C@H](C(=O)N[C@H](C(=O)N[C@@H](C)C(=O)N[C@@H](CCC(=O)O)C(=O)N[C@@H](CCCCN)C(=O)N[C@@H](CC(C)C)C(N)=O)[C@@H](C)CC)C(C)C)C(C)C)C(C)C)C(C)C [F3, Caerin 1.9] (H-GLFGVLGSIAKHVLPHVVPVIAEKL-NH2)
[1]
  ABBASO (basophils): 0.01 ± 0 10^9/L
  ABEOS (eosinophils): 0.16 ± 0.07 10^9/L
  ABLYMP (lymphocytes): 7.64 ± 1.61 10^9/L
  ABMONO (monocytes): 0.23 ± 0.08 10^9/L
  ABNEUT (neutrophils): 2.53 ± 0.45 10^9/L
  ABRETIC: 273.87 ± 31.75 10^9/L
  APTT: 14.9 ± 0.28 s
  HCT: 38.2 ± 1.34%
  HGB: 11.62 ± 0.50 g/dL
  MCH: 19.25 ± 0.69 pg
  MCHC: 30.4 ± 0.46 g/dL
  MCV: 63.38 ± 2.38 fL
  MPV: 8.58 ± 0.42 fL
  PLT: 1357.67 ± 169.65 10^9/L
  PT: 20.45 ± 1.16 s
  RBC: 6.04 ± 0.37 10^12/L
  WBC: 10.67 ± 1.900 10^9/L
[2]
  ABBASO (basophils): 0.006 ± 0.005 10^9/L
  ABEOS (eosinophils): 0.072 ± 0.034 10^9/L
  ABLYMP (lymphocytes): 5.956 ± 2.336 10^9/L
  ABMONO (monocytes): 0.228 ± 0.234 10^9/L
  ABNEUT (neutrophils): 1.71 ± 1.516 10^9/L
  ABRETIC: 226.5 ± 33.41 10^9/L
  APTT: 16.94 ± 1.15 s
  HCT: 45.34 ± 3.13%
  HGB: 14.44 ± 1.06 g/dL
  MCH: 19.06 ± 0.27 pg
  MCHC: 31.82 ± 0.47 g/dL
  MCV: 59.86 ± 0.56 fL
  MPV: 9.02 ± 0.30 fL
  PLT: 1081.6 ± 83.2 10^9/L
  PT: 20.06 ± 0.75 s
  RBC: 7.584 ± 0.568 10^12/L
  WBC: 8.022 ± 3.840 10^9/L
[3]
  ABBASO (basophils): 0.01 ± 0.007 10^9/L
  ABEOS (eosinophils): 0.072 ± 0.032 10^9/L
  ABLYMP (lymphocytes): 6.526 ± 1.92 10^9/L
  ABMONO (monocytes): 0.136 ± 0.034 10^9/L
  ABNEUT (neutrophils): 1.128 ± 0.308 10^9/L
  ABRETIC: 192.02 ± 21.07 10^9/L
  APTT: 18.24 ± 1.36 s
  HCT: 46.98 ± 1.22%
  HGB: 14.9 ± 0.29 g/dL
  MCH: 18.78 ± 0.75 pg
  MCHC: 31.76 ± 0.46 g/dL
  MCV: 59.1 ± 1.71 fL
  MPV: 9.28 ± 0.20 fL
  PLT: 1004.4 ± 93.7 10^9/L
  PT: 19.44 ± 0.70 s
  RBC: 7.954 ± 0.424 10^12/L
  WBC: 7.922 ± 1.865 10^9/L
[4]
  ABBASO (basophils): 0.008 ± 0.004 10^9/L
  ABEOS (eosinophils): 0.06 ± 0.031 10^9/L
  ABLYMP (lymphocytes): 5.886 ± 1.807 10^9/L
  ABMONO (monocytes): 0.142 ± 0.094 10^9/L
  ABNEUT (neutrophils): 1.148 ± 0.434 10^9/L
  ABRETIC: 215.84 ± 21.41 10^9/L
  APTT: 17.02 ± 1.47 s
  HCT: 47.16 ± 1.49%
  HGB: 14.96 ± 0.47 g/dL
  MCH: 18.64 ± 1 pg
  MCV: 58.8 ± 2.76 fL
  MPV: 9 ± 0.19 fL
  PLT: 987 ± 86.1 10^9/L
  PT: 19.72 ± 0.50 s
  RBC: 8.042 ± 0.561 10^12/L
  WBC: 7.28 ± 2.163 10^9/L
[5]
  ABBASO (basophils): 0.01 ± 0.01 10^9/L
  ABEOS (eosinophils): 0.17 ± 0.06 10^9/L
  ABLYMP (lymphocytes): 10.1 ± 2.26 10^9/L
  ABMONO (monocytes): 0.34 ± 0.09 10^9/L
  ABNEUT (neutrophils): 2.43 ± 1.39 10^9/L
  ABRETIC: 338.6 ± 20.2 10^9/L
  APTT: 16.2 ± 1.82 s
  HCT: 42.18 ± 0.92%
  HGB: 12.68 ± 0.34 g/dL
  MCH: 18.28 ± 0.56 pg
  MCHC: 30.08 ± 0.52 g/dL
  MCV: 60.78 ± 1.44 fL
  MPV: 9.05 ± 0.36 fL
  PLT: 1421.5 ± 225.3 10^9/L
  PT: 20.87 ± 1.2 s
  RBC: 6.94 ± 0.18 10^12/L
  WBC: 13.19 ± 3.49 10^9/L
[6]
  ABBASO (basophils): 0.005 ± 0.006 10^9/L
  ABEOS (eosinophils): 0.088 ± 0.013 10^9/L
  ABLYMP (lymphocytes): 7.695 ± 0.12 10^9/L
  ABMONO (monocytes): 0.283 ± 0.124 10^9/L
  ABNEUT (neutrophils): 1.185 ± 0.375 10^9/L
  ABRETIC: 250.78 ± 19.32 10^9/L
  APTT: 17.44 ± 0.85 s
  HCT: 48.4 ± 1.29%
  HGB: 15.1 ± 0.41 g/dL
  MCH: 18.63 ± 1.63 pg
  MCHC: 31.23 ± 0.69 g/dL
  MCV: 59.58 ± 4.36 fL
  MPV: 9.35 ± 0.33 fL
  PLT: 862.8 ± 95.1 10^9/L
  PT: 19.76 ± 0.92 s
  RBC: 8.163 ± 0.679 10^12/L
  WBC: 9.315 ± 0.344 10^9/L
[7]
  ABBASO (basophils): 0.012 ± 0.008 10^9/L
  ABEOS (eosinophils): 0.086 ± 0.059 10^9/L
  ABLYMP (lymphocytes): 10.178 ± 2.676 10^9/L
  ABMONO (monocytes): 0.262 ± 0.043 10^9/L
  ABNEUT (neutrophils): 1.498 ± 0.573 10^9/L
  ABRETIC: 252.72 ± 25.77 10^9/L
  APTT: 17.86 ± 1.84 s
  HCT: 47.5 ± 1.89%
  HGB: 14.72 ± 0.59 g/dL
  MCH: 18.6 ± 0.49 pg
  MCHC: 30.98 ± 0.24 g/dL
  MCV: 60.06 ± 2.02 fL
  PLT: 878 ± 118.5 10^9/L
  PT: 19.88 ± 0.94 s
  RBC: 7.916 ± 0.383 10^12/L
  WBC: 12.12 ± 2.998 10^9/L
[8]
  ABBASO (basophils): 0.01 ± 0.01 10^9/L
  ABEOS (eosinophils): 0.11 ± 0.062 10^9/L
  ABLYMP (lymphocytes): 8.444 ± 1.168 10^9/L
  ABMONO (monocytes): 0.27 ± 0.06 10^9/L
  ABNEUT (neutrophils): 1.742 ± 0.58 10^9/L
  ABRETIC: 270.82 ± 25.29 10^9/L
  APTT: 17.34 ± 1.96 s
  HCT: 47.62 ± 1.59%
  HGB: 14.6 ± 0.55 g/dL
  MCH: 18.86 ± 0.15 pg
  MCV: 61.52 ± 0.65 fL
  MPV: 9.26 ± 0.24 fL
  PLT: 985.4 ± 65 10^9/L
  PT: 20.14 ± 0.95 s
  RBC: 7.742 ± 0.232 10^12/L
  WBC: 10.654 ± 1.291 10^9/L
